Data from patent publication US5900488A, “Method for treating mycosis using imidazolylacetonitrile derivatives” (Nihon Nohyaku Co., Ltd., priority 1995, dated 1999).
Values after ≈ are worked out from the molar mass of the structure shown. “Also recorded” adds a separate entry of the source. Like-named read-outs stand apart in the source and are kept apart here.

Assays:
Candida albicans = assay: In vitro antifungal activity against Candida albicans, MIC by twofold micro-broth dilution (Test Example 3); assay type: cell-based; conditions: 48 hours at 35° C., pH 7.0, read-out: MIC
Method: MICs were determined by the twofold micro-broth dilution method with RPMI 1640 buffered with morphorino-propanesulfonic acid to a final molarity of 0.165M (pH 7.0). One hundred μl of a yeast cell suspension (1 to 5×10^3 cells/ml) and 100 μl of the compound-containing medium were pipetted into each well flat-bottomed microtiter plates. After incubation for 48 hours at 35° C., the turbidity of each well was measured at 630 nm.

Trichophyton rubrum = assay: In vitro activity against Trichophyton rubrum, MIC by twofold macro-broth dilution (Test Example 1); assay type: cell-based
Method: (§1) Minimum inhibitory concentrations (MICs) were determined by the twofold macro-broth dilution method with Sabouraud's glucose broth which constituted with 1% bactopeptone and 4% glucose. To each tube containing 9.8 ml of the broth, 0.1 ml of each testing compound dissolved in DMSO and 0.1 ml of a conidial suspension (1×10^6 conidia/ml) were added. The fungal growth was observed after incubation for 7 days at 27° C. The MIC was determined as the lowest drug concentration which prevented a visible fungal growth.

[1] = system: Trichophyton mentagrophytes; assay: In vitro activity against Trichophyton mentagrophytes, MIC by twofold macro-broth dilution (Test Example 1); assay type: cell-based; conditions: for MIC: Trichophyton mentagrophytes, 7 days at 27° C.
Method: as §1

Aspergillus fumigatus = assay: In vitro antifungal activity against Aspergillus fumigatus, MIC by twofold agar dilution (Test Example 4); assay type: cell-based; conditions: read-out: MIC
Method: MICs were determined by the twofold agar dilution method with casitone agar which constituted with 0.9% bactocasitone, 1% bacto-yeast extract, 2% glucose, 0.1% KH2 PO4, 0.1% Na2 HPO4, 1% Na3 C6 H5 O7 and 1.6% agar. A loopful of each inoculum (1×10^6 conidia/ml) was streaked onto the agar plate containing a compound, and a fungal growth was observed after incubation for 48 hours at 35° C. The MIC was determined as the lowest drug concentration which prevented a visible fungal growth.

[2] = system: trichophyton mentagrophytes TIMM 2789; assay: Therapeutic efficacy on experimental tinea pedis in guinea pigs (Test Example 2); assay type: in vivo
Method: Male Hartley guinea pigs (Japan SLC Inc.) weighing 400 to 620 g were used for the infection study. One side of a paper disc (1.5 mm thick×8 mm diameter) was covered with a piece of aluminum foil while the other side was free to carry the inoculum suspension. The disc was immersed with 50 μl of the inoculum suspension (trichophyton mentagrophytes TIMM 2789, 1×10^8 conidia/ml), and was then fixed on the planta pedis of animal feet with an adhesive elastic tape. The disc was removed on the seventh day postinfection. Each agent dissolved in PEG 400 (0.1 ml/locus) was topically applied to the whole soles of guinea pigs once a day for 3 consecutive days, starting on the 10th day postinfection. Five days after the last treatment, the skin tissue from each planta pedis and the corresponding tarsus of all animals was cut into small blocks (about 2×2 mm). Ten skin blocks obtained from each part of the foot were implanted on a Sabouraud's glucose agar plate containing antibiotics, and were cultured at 27° C. for 14 days. The skin blocks yielding fungal growth were regarded as culture-positive, and the foot (planta pedis plus tarsus) with more than one culture-positive skin block was considered fungus-positive. In addition, the intensity of infection was assessed by the scores based on the number of culture-positive skin blocks. Namely, +10, +9, +8, +7, +6, +5, +4, +3, +2, +1 or 0 was given as the score according to the corresponding number of culture-positive skin blocks out of ten skin blocks studied. Statistical analyses for the rate of fungus-positive feet and the average intensity of infection were assessed by Fisher's exact probably test and Mann-Whitney's U-test, respectively.

dermatophytes = assay: Antifungal activity against dermatophytes compared with racemic mixtures (general statement); conditions: especially highly sensitive strains
[3] = 0.5% in PEG 400, topical once a day for 3 days, p < 0.01 vs untreated and PEG 400 control
[4] = 1% in PEG 400, topical once a day for 3 days, p < 0.01 vs untreated and PEG 400, Compound (A) also p < 0.05 vs 1% Racemic Compound (A)
[5] = 1% in PEG 400, topical once a day for 3 days, p < 0.01 vs untreated and PEG 400 control

In the case of `N#C/C(=C1/SC[C@@H](c2ccccc2Cl)S1)n1ccnc1` [Compound (A), R-(+)-(E)-[4-(2-chlorophenyl)-1,3-dithiolan-2-ylidene]-1-imidazolylacetonitrile], the MIC (Candida albicans; IFO0197, strain IFO 0197, 80% inhibition) was 0.0625 µg/mL (≈ 0.195 µM), the MIC (Candida albicans; IFO0579, strain IFO 0579, 80% inhibition) was 0.0313 µg/mL (≈ 0.0979 µM) and the MIC (Candida albicans; IFO1269, strain IFO 1269, 80% inhibition) was 0.0625 µg/mL (≈ 0.195 µM). It also gave an MIC (Candida albicans; IFO1270, strain IFO 1270, 80% inhibition) of 0.25 µg/mL (≈ 0.782 µM), an MIC (Candida albicans; IFO1385, strain IFO 1385, 80% inhibition) of 0.0625 µg/mL (≈ 0.195 µM) and an MIC (Candida albicans; IFO1386, strain IFO 1386, 80% inhibition) of 0.125 µg/mL (≈ 0.391 µM). It also gave an MIC (Candida albicans; TIMM3163, strain TIMM 3163, 80% inhibition) of 4 µg/mL (≈ 12.5 µM), an MIC (Candida albicans; TIMM3164, strain TIMM 3164, 80% inhibition) of 0.25 µg/mL (≈ 0.782 µM) and an MIC (Candida albicans; TIMM3165, strain TIMM 3165, 80% inhibition) of 2 µg/mL (≈ 6.25 µM). The MIC (Candida albicans; TIMM3166, strain TIMM 3166, 80% inhibition) was 1 µg/mL (≈ 3.13 µM), the “sensitivity (in words)” value (Trichophyton rubrum) was “highly sensitive” and the MIC (Trichophyton rubrum; IFO5467, 168 h, strain IFO 5467, 7 days at 27° C.) was 1.3 ng/mL (≈ 0.00406 µM). For the same compound, the MIC (Trichophyton rubrum; IFO5807, 168 h, strain IFO 5807, 7 days at 27° C.) was 2.5 ng/mL (≈ 0.00782 µM), the MIC (Trichophyton rubrum; IFO5808, 168 h, strain IFO 5808, 7 days at 27° C.) was 2.5 ng/mL (≈ 0.00782 µM) and the MIC (Trichophyton rubrum; IFO6203, 168 h, strain IFO 6203, 7 days at 27° C.) was 2.5 ng/mL (≈ 0.00782 µM). For the same compound, the MIC (Trichophyton rubrum; IFO6204, 168 h, strain IFO 6204, 7 days at 27° C.) was 2.5 ng/mL (≈ 0.00782 µM), the MIC (Trichophyton rubrum; IFO9185, 168 h, strain IFO 9185, 7 days at 27° C.) was 1.3 ng/mL (≈ 0.00406 µM) and the MIC (Trichophyton rubrum; TIMM1822, 168 h, strain TIMM 1822, 7 days at 27° C.) was 1.3 ng/mL (≈ 0.00406 µM). The MIC (Trichophyton rubrum; TIMM1823, 168 h, strain TIMM 1823, 7 days at 27° C.) was 2.5 ng/mL (≈ 0.00782 µM), the MIC (Trichophyton rubrum; TIMM1824, 168 h, strain TIMM 1824, 7 days at 27° C.) was 1.3 ng/mL (≈ 0.00406 µM) and the MIC (Trichophyton rubrum; TIMM1830, 168 h, strain TIMM 1830, 7 days at 27° C.) was 0.63 ng/mL (≈ 0.00197 µM). For the same compound, the “in vitro antifungal activity relative to Racemic Compound (A)” value ([1]; MIC for T. mentagrophytes TIMM 2789) was 4 times, the MIC ([1]; IFO5466, 168 h, strain IFO 5466) was 0.02 µg/mL (≈ 0.0625 µM) and the MIC ([1]; IFO5809, 168 h, strain IFO 5809) was 0.005 µg/mL (≈ 0.0156 µM). The MIC ([1]; IFO5810, 168 h, strain IFO 5810) was 0.005 µg/mL (≈ 0.0156 µM), the MIC ([1]; IFO5811, 168 h, strain IFO 5811) was 0.02 µg/mL (≈ 0.0625 µM) and the MIC ([1]; IFO5929, 168 h, strain IFO 5929) was 0.01 µg/mL (≈ 0.0313 µM). For the same compound, the MIC ([1]; TIMM1189, 168 h, strain TIMM 1189) was 0.01 µg/mL (≈ 0.0313 µM), the MIC ([1]; TIMM1814, 168 h, strain TIMM 1814) was 0.02 µg/mL (≈ 0.0625 µM) and the MIC ([1]; TIMM1815, 168 h, strain TIMM 1815) was 0.02 µg/mL (≈ 0.0625 µM). The MIC ([1]; TIMM1817, 168 h, strain TIMM 1817) was 0.02 µg/mL (≈ 0.0625 µM), the MIC ([1]; TIMM2789, 168 h, strain TIMM 2789) was 0.005 µg/mL (≈ 0.0156 µM) and the MIC (Aspergillus fumigatus; TIMM0063, strain TIMM 0063, 48 hours at 35° C.) was 0.63 ng/mL (≈ 0.00197 µM). The MIC (Aspergillus fumigatus; TIMM0078, strain TIMM 0078, 48 hours at 35° C.) was 0.63 ng/mL (≈ 0.00197 µM), the MIC (Aspergillus fumigatus; TIMM1728, strain TIMM 1728, 48 hours at 35° C.) was 1.3 ng/mL (≈ 0.00406 µM) and the MIC (Aspergillus fumigatus; TIMM1767, strain TIMM 1767, 48 hours at 35° C.) was 1.3 ng/mL (≈ 0.00406 µM). For the same compound, the “effect relative to 1% Racemic Compound (A)” value ([2]; 0.5% Compound (A) vs 1% Racemic Compound (A)) was “twice; also recorded: more than twice”, the “Average intensity of infection, planta pedis (score 0 to +10)” value [2, 3] was “+0.3” and the “Average intensity of infection, tarsus (score 0 to +10)” value [2, 3] was 0. The “Fungus-positive rate (%)” value [2, 3] was 20%, the “Fungus-positive rate: The number of positive feet/The total number of feet” value [2, 3] was 2/10 and the “Fungus-positive rate (%)” value [2, 4] was 0%. The “Fungus-positive rate: The number of positive feet/The total number of feet” value [2, 4] was 0/10, the “Average intensity of infection, planta pedis (score 0 to +10)” value [2, 5] was 0 and the “Average intensity of infection, tarsus (score 0 to +10)” value [2, 5] was 0. The “curative effect (in words)” value ([2]; 1% treated group) was “mycologically complete healing”, the “curative effect compared with Racemic Compound (A)” value ([2]; at the same concentration) was “markedly higher” and the “antifungal activity relative to the racemic mixtures” value (dermatophytes) was “several times”.
